Assay results reported in patent US6642365B1, “Anti-(retro)viral conjugates of saccharides and acetamidino or guanidino compounds” (Yeda Research and Development Co. Ltd., priority 2001, dated 2003).
Where two headings read alike, the source gives them in different places.

Legend:
TAR RNA = experiment: L-arginine-Amberlite affinity column elution of TAR RNA; format: binding, HIV-1; conditions: concentration that elutes 50% of TAR RNA from L-arginine-Amberlite affinity column
Procedure: The model Tat peptide (R52: […]) was prepared by the Weizmann Institute Chemical Services and was purified by reverse phase HPLC (C-18) (Lapidot et al., 1995). […] The RNA was transcriptionally labeled with α-^32P UTP, purified on a 12% polyacrylamide/7M urea gel (19:1 acrylamide:bis-acrylamide) and was eluted from the gel by 0.5M ammonium acetate, 10 mM magnesium acetate, 1 mM EDTA and 0.1% SDS. The sample was subjected to phenol extraction and the RNA was precipitated from 70% ethanol. Purified RNA was dissolved in diethyl pyrocarbonate-treated water (DEPC water), its concentration was determined by UV absorption at 260 nm and the specific radioactivity was determined by scintillation counting on a LS 1701 “Bruker” counter.
The L-arginine-Amberlite resin was prepared as follows: Carboxyl groups of Amberlite IRC-50 resin were covalently modified with ethanolamine using 1-(3-dimethylaminopropyl) 3-ethylcarbodiimide, a water-soluble coupler. The hydroxy ethyleneamide resin obtained was washed and dried, and L-arginine (12-16 μmols per ml of resin) was coupled to the hydroxy groups of the resin via an isourea moiety using a standard cyanogen bromide protocol. The final concentration of arginine residues was 12-16 μmol per ml of resin. The swollen L-arginino-Amberlite resin (200 μl) was packed into a plastic mini-column and equilibrated with buffer containing 40 mM Tris HCl, pH 7.5, 250 mM NaCl, 0.5 mM EDTA and 5 mM MgCl2 (buffer A). Approximately 1 ng of ^32P-UTP labeled TAR RNA in buffer A was loaded on the column. The column was eluted 3 to 5 times with 400 μl portions of buffer A, until no radioactivity was detected in the eluent. […] Each of the test compounds was dissolved in buffer A and passed through the column in 300 μl portions. Radioactivity of the eluates was determined by scintillation counting on a LS 1701 “Bruker” counter. CE50 values, the concentrations of inhibitors eluting 50% of the radioactive material from the column, were determined.

HIV-1 RF = experiment: Anti-HIV assay, MTT; format: cell-based
HIV-1 Ba-L = experiment: Anti-HIV assay, β-galactosidase activity in P4-CCR5 MAGI cells; format: cell-based
Procedure: The HIV-1 strains NL4-3 and Ba-L and the CD4^+lymphocytic cell lines SUP-T1, MT-4 and MT-2 and P4-CCR5 MAGI cells were obtained from the MRC AIDS reagent program or the NIH, AIDS Research and Reference Reagent Program.
The cells were infected by incubation with different titers of the HIV-1 strains for 2 hrs at 37° C. in the presence or absence of the AAC of the invention. Then the cells were washed from the virus by centrifugation at 400 g and the supernatants were discarded. The cells were resuspended in culture medium, supplemented with different concentrations of the test compounds. The cells were allowed to proliferate for 5 days, the number of viable cells was quantified by a tetrazolium-based colorimetric method (CellTiter 96® AQueous One solution Cell Proliferation Assay, Promega). Anti-HIV activity in P4-CCR5 MAGI cells was done as follows: cells (1×10^5/ml) were infected with 10 ng/ml of p24 antigen of HIV-1 Ba-L in the presence of varying concentrations of the test compound. 24 hours post infection, cells were washed twice with PBS and resuspended in the medium containing the appropriate drug concentration. Five days after infection the cells were washed with PBS and evaluated for β-galactosidase activity.

HIV-1 NL4-3 = experiment: Virus-binding assay, p24 antigen bound to MT-4 cells; format: cell-based; conditions: 1 hour at 37° C.; dose dependent
Procedure: MT4 cells (5×10^5) were incubated with supernatant containing 1×10^5 pg of p24 antigen of wild type HIV-1 in the presence of different concentrations of the test compound. One hour after infection, cells were washed 3 times with PBS and p24 antigen bound to the cells was determined by a commercial ELISA test (Coulter, Spain).

CXCR4 = CXCR4 (Homo sapiens, UniProt P61073); experiment: Inhibition of anti-CXCR4 mAb (12G5) binding, flow cytometry, PHA-activated PBMC; design: endogenous in cells; conditions: for IC50: read-out: IC50-12G5 PMBC
Procedure: Measurement of chemokine receptors CXCR4, CCR5 and the CD4 receptor on phytohemagglutinin (PHA)-activated PBMC was performed by flow cytometry analysis. Briefly, 0.5×10^6 cells were washed in ice-cold phosphate-buffered saline (PBS) and incubated for 30 minutes at 4÷C. with fluorescent labelled mAb 12G5 and 2D7 and Leu3a (Becton Dickinson, San Jose, Calif.) or with isotype control mAbs in the presence or absence of the test compound. Then, the cells were washed with ice-cold PBS and were fixed in PBS containing 1% formaldehyde. For each sample, 10,000 events were analysed in a FACScalibur™ system (Becton Dickinson). Data were acquired and analysed with CellQuest™ software (Becton Dickinson).

[1] = MTT assay, read-out: EC50 HIV-1 RF

Sequence of CXCR4 (P61073 whole entry): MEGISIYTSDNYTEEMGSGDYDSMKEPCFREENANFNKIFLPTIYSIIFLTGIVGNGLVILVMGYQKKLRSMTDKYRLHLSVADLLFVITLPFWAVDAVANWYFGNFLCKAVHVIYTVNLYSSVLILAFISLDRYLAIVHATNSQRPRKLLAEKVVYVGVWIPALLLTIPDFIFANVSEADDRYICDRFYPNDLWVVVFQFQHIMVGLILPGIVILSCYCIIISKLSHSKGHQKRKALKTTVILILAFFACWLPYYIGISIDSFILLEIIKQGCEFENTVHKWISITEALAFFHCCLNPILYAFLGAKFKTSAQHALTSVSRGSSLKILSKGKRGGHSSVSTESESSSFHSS

Molecule: N=C(N)NCCCC(N)C(=O)NCC1OC(OC2C(NC(=O)C(N)CCCNC(=N)N)CC(NC(=O)C(N)CCCNC(=N)N)C(OC3OC(CO)C(O)C(NC(=O)C(N)CCCNC(=N)N)C3O)C2O)C(O)C(O)C1O (stereo not drawn) [R4K, Tetraargininamido-kanamycin A conjugate]
- CE50 (TAR RNA): 2.5 mM
- EC50 (HIV-1 RF; [1]): > 113 µM
- EC50 (HIV-1 Ba-L): > 113 µM
- binding of HIV-1 NL4-3 to MT-4 cells (HIV-1 NL4-3): inhibit the binding
- IC50 (CXCR4): 2.2 µM

Molecule: Triargininamido-gentamicin conjugate [R3G]
- CE50 (TAR RNA): 1.4 mM
- EC50 (HIV-1 RF; [1]): 35 µM
- EC50 (HIV-1 RF; range over HIV-1 RF strain, AOM clinical isolate and M-tropic Ba-L strain, read-out: EC50): 16 to 35 µM
- EC50 (HIV-1 Ba-L): 29 µM
- binding of HIV-1 NL4-3 to MT-4 cells (HIV-1 NL4-3): inhibit the binding
- binding of 12G5 mAb to PHA-activated PBMC (CXCR4; 5 μM): suppressed
- IC50 (CXCR4): 2.7 µM
